Measurements from US20030152646A1, “Method of treating conditions caused by activated microglia” (priority 2001, published 2003).
Entries after “also recorded” stand apart in the source; their conditions may differ.

Columns and labels:
TNF-α secretion = assay: TNF-α Elisa of culture supernatants of LPS-treated microglia-neuron co-cultures; format: cell-based, rat; settings: 100 ng/ml LPS, 48 hours; for effect on TNF-α secretion: PEN 500 μM, THA 200 μM
Protocol: Levels of secreted TNF-α in culture supernatants were determined by an enzyme-linked immuno-sorbent assay (Elisa) kit following manufacturer's instructions (BioSource International, Camarillo, Calif.).

[1] = tested on: nitric oxide (NO) production; assay: Nitrite measurement (Griess reaction) in LPS-treated microglia-neuron co-cultures; format: cell-based, rat; settings: for effect on nitrite accumulation / NO production: 100 ng/ml LPS, 48 hours, same concentrations as for neuron survival
neurons = assay: TUNEL staining of neurons from Aβ1-42-treated microglia-neuron co-cultures; format: cell-based, rat; settings: 5 μM Aβ1-42 + 10 ng/ml interferon γ, 24 hours
Protocol: DNA cleavage in apoptotic nuclei was detected with In Situ Cell Death Detection Kit as described by the manufacturer (Roche Molecular Biochemicals, Indianapolis, Ind.). Briefly, cells were fixed with paraformaldehyde (4% in PBS, pH 7.4) and permeablized (0.1% Triton X-100 in 0.1% sodium citrate). After incubation for 1 hr at 37° C. in terminal deoxynucleotidyl transferase (TdT) reaction mixture, signals were visualized under a fluorescence microscope (excitation/emission wavelengths: 450-500 nm/515-565 nm). Samples were further blotted with alkaline phosphatase-conjugated anti-fluorescein antibody. Following color reaction, samples were analyzed under a light microscope.

[2] = tested on: microglia-neuron co-cultures
[3] = tested on: nitric oxide (NO) production; assay: Nitrite measurement in microglia-neuron co-cultures treated with Aβ1-42 and interferon γ; format: cell-based, rat; settings: 5 μM Aβ1-42 + 10 ng/ml interferon γ, 48 hour; FeTMPyP 2 μM
Protocol: Nitric oxide (NO) production was determined indirectly through the assay of nitrite (NO2), a stable metabolite of NO, based on the Griess reaction (Huygen, 1970; Green et al., 1982; Ding et al., 1988). Briefly, a 50 μl aliquot of conditioned media was mixed with an equal volume of Griess reagent (0.1% N-(1-naphthyl)ethylenediamine dihydrochloride, 1% sufanilamide, and 2.5% phosphoric acid, all from Sigma), and incubated for 10 min at 22° C. The absorbance was read at 550 nm on a microtiter plate reader (Spectra MAX 250, Molecular Devices, Sunnyvale, Calif.). Nitrite concentrations were calculated from a standard curve of NaNO2 (Sigma) ranging from 0 to 100 μM. Background NO2 was subtracted from the experimental values.

primary cortical neurons = assay: Neuron survival of primary cortical neurons treated with SIN-1; format: cell-based, rat; settings: 50 μM SIN-1, 2 μM FeTMPyP, 48 hr
Protocol: To validate the specificity and effectiveness of the peroxynitrite decomposition catalyst FeTMPyP, this catalyst was further tested with neuron cultures treated with SIN 1, an exogenous NO and superoxide donor that, consequently, generates peroxynitrite under physiological conditions [Hogg, 1992]. Primary cortical neurons were treated with 50 μM SIN-1 in the presence or absence of 2 μM FeTMPyP for 48 hr.
Neuron cultures were derived from […] (embryonic day 17) Fishes 344 rat cerebral cortices detailed previously (Banker and Goslin, 1988; Rozovsky et al., 1994) and plated at 5×10^4 viable cells/well is poly-D-lysine (Sigma) coated 24-well plates (Costar). […]
Following treatment, culture inserts containing microglia were removed and neurons were stained with 10 jig/ml fluorescein diacetate (FDA, Sigma) for 10 min. […] Since neuron deaths occur primarily in the region directly underneath the microglia-containing culture inserts (see FIG. 6D), for quantification, eight images at the center of each well were taken with a Nikon TE300 fluorescent microscope and analyzed with the IP Lab imaging software (version 3.54, Scanalytics, Fairfax, Va.). Viable neurons were quantified by the area covered by green fluorescence, after the establishment of a linear relationship between the numbers of stained cells and the green fluorescent area. […]

[4] = tested on: microglia-neuron co-cultures; settings: 100 ng/ml LPS
microglia cells = assay: Superoxide generation by LPS-activated microglia (EPR, DMPO spin trap); format: cell-based, rat; settings: 100 ng/ml LPS
Protocol: To monitor the generation of superoxide by activated microglia, Electron Paramagnetic Resonance (EPR) measurements were performed with 5,5-dimethyl-1-pyrroline-N-oxide (DMPO) as a superoxide spin trap. To confirm that the EPR signal is caused by superoxide, either superoxide dismutase (SOD) or DMSO, which competes with DMPO for hydroxyl radical, were added to the microglia cells together with LPS.
For EPR measurements, microglia cells (100,000) with or without LPS treatment were incubated in 200 μl culture medium containing 120 mm DMPO. After 15 minutes, the medium was removed and analyzed by EPR. EPR spectra were recorded on a Bruker ECS106 spectrometer with the following settings: receiver gain: 5×10^5; microwave power: 20 mW; microwave frequency: 9.81 GHz; modulation amplitude: 1 G; time constant: 1.3 seconds; scan time: 87 seconds; scan width: 80 G. The DMPO-OH signal generated from […] were quantified by comparison with TEMPOL standard after doubly integration of both signals. All scans shown are an accumulation of 7 scans.

In the case of `CC(=O)CCCCn1c(=O)c2c(ncn2C)n(C)c1=O` [pentoxifylline], the “effect on TNF-α secretion” value (TNF-α secretion) is reported as “inhibits” and the “effect on nitrite accumulation / NO production” value [1] is reported as “little effect; also recorded: did not decrease nitrite/NO generation”.
In the case of “Aβ1-42: amyloid β-peptide 1-42, aggregated (fibrillar), applied with 10 ng/ml interferon γ as priming factor”, the TUNEL-labeled neurons (neurons) is reported as “majority”, the death of neurons [2] is reported as “over 80%” and the “neurotoxicity in the absence of microglia” value [2] is reported as “did not result in neurotoxicity”.
In the case of `C[n+]1ccc(-c2c3nc(c(-c4cc[n+](C)cc4)c4ccc([n-]4)c(-c4cc[n+](C)cc4)c4nc(c(-c5cc[n+](C)cc5)c5ccc2[n-]5)C=C4)C=C3)cc1.[Cl-].[Fe+3]` [FeTMPyP, 5,10,15,20-Tetrakis(N methyl-4′-pyridyl)porphinato iron (III) chloride], the “effect on nitric oxide production” value [3] is reported as “without compromising nitric oxide production”, the “protection of neurons against SIN-1 induced peroxynitrite toxicity” value (primary cortical neurons) is reported as “effectively protected” and the “optimal concentration of protective action against LPS-induced microglial neurotoxicity” value ([4]; dose-dependent) is reported as 2 µM. The “effect on nitrite accumulation / NO production” value [1] was “without decreasing NO production”.
In the case of Lipopolysaccharide [LPS], the “peak of superoxide generation” value (microglia cells) is reported as 12 h, the “beginning of nitrite generation” value [1] is reported as 6 h and the “peak of nitrite generation” value [1] is reported as “approximately 14 hours”.
`O=C1CCC(N2C(=O)c3ccccc3C2=O)C(=O)N1` (stereo not drawn) [thalidomide] was tested, and the “effect on TNF-α secretion” value (TNF-α secretion) was “inhibited” and the “effect on nitrite accumulation / NO production” value [1] was “inhibited”.
For `CNC(=N)NCCC[C@H](N)C(=O)O` [L-NMMA, N^G-Monomethyl-L-arginine], the viable neurons ([4]; 48 hours, 1 mM L-NMMA added at the same time with LPS) was 92.4±7.4 % of control, the “reduction of TNF-α secretion” value (TNF-α secretion; 1 mM L-NMMA) was 35% and the “effect on nitrite accumulation / NO production” value [1] was “completely blocked”.
`Cl.O=S(=O)([O-])c1ccc(-c2c3nc(c(-c4ccc(S(=O)(=O)O)cc4)c4ccc([nH]4)c(-c4ccc(S(=O)(=O)O)cc4)c4nc(c(-c5ccc(S(=O)(=O)O)cc5)c5ccc2[nH]5)C=C4)C=C3)cc1.[Fe]` [FeTPPS, 5,10,15,20-Tetrakis(4-sulfonatophenyl)prophyrinato iron (III) chloride] was tested, and the “effect on nitrite accumulation / NO production” value [1] was “without decreasing NO production”.
